Read-outs that look alike come from different tables or passages of the source.
Assays:
C. elegans [1] = experiment: C. elegans motility dose-response (DR) assay; set-up: species or system Caenorhabditis elegans; settings: read-out: EC50 (μM) at 24 h, C. elegans motility, DR assay
[2] = tested on: H. contortus susceptible strain; experiment: Egg hatch inhibition (EHI), ovicidal effect; set-up: species or system Haemonchus contortus
[3] = tested on: mouse intestinal organoids (enteroids); experiment: Mouse intestinal organoids' tolerance assay (alamarBlue); settings: read-out: Citotoxicity CC50 (μM) Ent; mouse enteroid
[4] = tested on: mouse intestinal organoids (enteroids); settings: C57BL/6, mouse
[5] = tested on: T. circumcincta resistant strain; experiment: Egg hatch inhibition (EHI), ovicidal effect; set-up: species or system Teladorsagia circumcincta
[6] = tested on: H. contortus susceptible strain; experiment: Larval migration inhibition test (LMIT); set-up: species or system Haemonchus contortus; settings: L3, 100 μM, NE = Not Effective at 100 μM, control ivermectin 8.75 µg/mL
C. elegans [7] = tested on: C. elegans
HepG2 liver spheroids = experiment: Spheroids toxicity assay (alamarBlue); type: cell-based
Protocol: HepG2 cells were cultured as a monolayer under standard conditions, using DMEM/F12 medium supplemented with L-glutamine and 15 mM HEPES buffer (pH 7.2) supplemented with 10% fetal bovine serum (FBS) and antibiotic mixture (100 U/mL penicillin and 100 µg/mL streptomycin) at 37 °C and 5% CO2, according to previous published protocols.
Cells were detached from the culture flask using 0.25% trypsin solution and then centrifuged at 500× g for 6.5 min. After centrifugation, the supernatant was discarded, and the pellet was resuspended in culture medium. Cells were passed gently through a G27 needle several times and then counted. Cells were dispensed into a tissue treated Nunclon™ Sphera™ 96-well U-bottom plate (Thermo Scientific™, Waltham, MA, USA, 174925) in a final volume of 50 µL to a total of 2500 cells/well. In addition, another 50 µL of medium supplemented with Rat Tail Collagen I (Gibco™, Thermo Scientific™, Waltham, MA, USA, A1048301) was dispensed, to achieve a final concentration in a plate of 3 µg/mL for each well. The plate was centrifuged at 500× g for 1 min.
On Day 4, 100 µL of a serial dilution of the testing compounds were added to each well. For controls, 0.03% H2O2 (v/v) as positive control and 0.2% DMSO (v/v) as negative control were used.
To determine the viability of the spheroids to the testing compounds, a 20% of alamarBlue™ HS reagent (Invitrogen™, Thermo Fisher Scientific™, Waltham, MA, USA) was added on Day 7 and the results were read 24 h later using a Varioskan™ LUX (Thermo Scientific, USA, Instrument software ver. 1.00.37, Skanlt software ver. 5.0.0.42). All assays were conducted in duplicate across at least three independent experiments.

C. elegans [8] = experiment: microbe, parasite or virus in culture; settings: Caenorhabditis elegans

Question: For O=C(/C=C/c1ccccc1)c1ccccc1 [Trans-chalcone], which EC50 (C. elegans [1]) is on record?
Answer: Its EC50 is 24.9 ± 1.8 µM.

Question: What about the EC50 ([2]; egg hatching, susceptible H. contortus, nine replicates, read-out: Ovicidal Effect EC50 (μM) H. c) of the same compound?
Answer: Its EC50 is 3.1 ± 0.2 µM.

Question: What about the “H. contortus EHI (%)” value ([2]; susceptible strain, 100 μM, NE = Not Effective at 100 μM, control thiabendazole 0.1 µg/mL) of the same compound?
Answer: The value was 99.5 ± 0.7%.

Question: And the CC50 [3]?
Answer: Its CC50 is over 50 µM.

Question: And the “Selective Index (SI) CC50/EC50 Ent/H. c” value [4]?
Answer: The value was over 16.1.

Question: And the “Selective Index (SI) CC50/EC50 Ent/T. c” value [4]?
Answer: The value was over 10.2.

Question: What about the EC50 ([5]; egg hatching, resistant T. circumcincta, nine replicates, read-out: Ovicidal Effect EC50 (μM) T. c) of the same compound?
Answer: Its EC50 is 4.9 ± 0.2 µM.

Question: And the “T. circumcincta EHI (%)” value ([5]; resistant strain, 100 μM, NE = Not Effective at 100 μM, control thiabendazole 0.1 µg/mL)?
Answer: Its value is 99.9 ± 0.2%.

Question: What about the “H. contortus LMIT (%)” value [6] of the same compound?
Answer: Its value is 20.3 ± 7.5%.

Question: And the “Inhibition (%) 110 μM (0 h)” value (C. elegans [7]; 0 h, 110 μM)?
Answer: The value was 16 ± 17%.

Question: What about the “Inhibition (%) 110 μM (24 h)” value (C. elegans [7]; 24 h, 110 µM) of the same compound?
Answer: Its value is 95 ± 5%.

Question: What about the CC50 (HepG2 liver spheroids; HepG2 liver spheroids, read-out: Citotoxicity CC50 (μM) Sph) of the same compound?
Answer: The CC50 was over 90 µM.

Question: What about the “Selective Index (SI) CC50/EC50 Sph/H. c” value (HepG2 liver spheroids; human, pH 7.2) of the same compound?
Answer: Its value is over 29.0.

Question: What about the “Selective Index (SI) CC50/EC50 Sph/T. c” value (HepG2 liver spheroids; human, pH 7.2) of the same compound?
Answer: The value was over 18.4.

Question: And the inhibition at 110 µM (C. elegans [8]; 0 h, read-out: Percentage of motility inhibition 0 h, Table S2, C. elegans SS assay, 110 μM, 0 h, averages of 4 data points)?
Answer: Its inhibition at 110 µM is 17%.

Question: And the inhibition at 110 µM (C. elegans [8]; 24 h, read-out: Percentage of motility inhibition 24 h, Table S2, C. elegans SS assay, 110 μM, 24 h, averages of 4 data points)?
Answer: The inhibition at 110 µM was 96%.
